Measured values reported in patent US9090535B2, “Hydroxylated tricyclic compounds” (Nektar Therapeutics, priority 2010, dated 2015).
Counter-ions that a name gives are not always drawn. Like-named read-outs stand apart in the source and are kept apart here.

Tests used:
[1] = system: sodium channels (sodium current INa) in rat dorsal root ganglion (DRG) cells; assay: Sodium channel assay, whole-cell patch clamp of sodium current in isolated DRG cells; format: cell-based
Excerpt: The effect of compounds disclosed herein on sodium channels may be evaluated in vitro to determine their blocking properties using the whole-cell patch clamp method in isolated cardiac (human atrial myocytes) and neuronal (rat dorsal root ganglion) cells. The example below refers to a sodium channel assay using neuronal cells.
Electrophysiologic patch clamp recordings of the sodium current in isolated rat dorsal root ganglion (DRG) cells were used to measure the sodium channel blocking properties of certain compounds disclosed herein. DRG cells were isolated according to the method of Blair and Bean (J Neurosci, 22: pp. 10277-10290, 2002) and plated on treated glass coverslips. For measuring the sodium current, cells were perfused with an external solution that consists of (in mmol/L): 115 TMA chloride, 10 NaCl, 5 CsCl, 1.8 CaCl2, 1.2 MgCl2, 10 HEPES, 11 dextrose, pH adjusted to 7.4 with TMA-OH. The chemical composition of the internal solution was (in mmol/L): 115 CsF, 20 CsCl, 10 NaF, 10 HEPES, 5 EGTA; pH adjusted to 7.2 with CsOH. Currents were measured using the whole-cell variant of the patch clamp method (Crumb & Clarkson, Biophysical Journal, 57(3): 589, 1990). An Axopatch 1-B amplifier (Axon Instruments, Foster City, Calif.) was used for whole-cell voltage clamping. Creation of voltage clamp pulses and data acquisition were controlled by a PC running pClamp software (version 9.2, Axon Instruments). INa was elicited by a 40 ms pulse to −20 mV from a holding potential of −65 mV. Pacing rates of 0.1 and 3 Hz were examined. […]. Four concentrations of each test compound were added to the cell in a cumulative manner starting with the lowest test concentration. Each cell served as its own control and data are presented as % reduction of current amplitude achieved in the presence of drug. A nonlinear curve fitting routine was utilized to fit a three-parameter Hill equation to the results using MicroCal Origin, version 6.0 software. The equation was: […]

[2] = biological target: T1, human norepinephrine transporter (hNET) (Homo sapiens, UniProt P23975); assay: Binding affinity to human norepinephrine transporter (hNET), [3H]Nisoxetine displacement; details: membranes from MDCK cells expressing hNET, [3H]Nisoxetine 2 nM, read-out: NET binding, Ki
T1 construct: expressed in transfected cells; host or cells: MDCK cells
T1 sequence (P23975 whole entry): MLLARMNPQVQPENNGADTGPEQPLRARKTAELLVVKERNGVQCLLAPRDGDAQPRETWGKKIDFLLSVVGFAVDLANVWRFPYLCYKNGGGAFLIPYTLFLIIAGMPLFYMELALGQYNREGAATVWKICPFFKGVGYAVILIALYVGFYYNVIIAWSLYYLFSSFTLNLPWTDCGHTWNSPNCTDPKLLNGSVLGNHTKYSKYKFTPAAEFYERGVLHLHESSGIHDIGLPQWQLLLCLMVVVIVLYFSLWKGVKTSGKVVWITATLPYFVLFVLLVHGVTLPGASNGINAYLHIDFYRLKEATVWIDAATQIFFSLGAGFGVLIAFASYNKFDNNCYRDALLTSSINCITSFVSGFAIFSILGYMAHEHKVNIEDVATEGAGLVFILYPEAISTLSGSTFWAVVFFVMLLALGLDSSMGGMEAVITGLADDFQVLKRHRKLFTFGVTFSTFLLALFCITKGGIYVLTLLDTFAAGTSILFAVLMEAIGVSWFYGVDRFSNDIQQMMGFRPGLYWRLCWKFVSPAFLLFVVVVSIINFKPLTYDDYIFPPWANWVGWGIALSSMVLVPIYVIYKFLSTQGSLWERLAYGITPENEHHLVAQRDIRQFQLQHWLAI
Protocol: The binding affinities of certain compounds disclosed herein to the hNET were measured using competitive radioligand displacement assays in membranes prepared from MDCK cells that express the human norepinephrine transporter. Competition binding experiments were conducted by incubating hNET membranes with [^3H] Nisoxetine (2 nM), in the presence of increasing concentrations of test compounds. Incubations were carried out at 4° C. for 60 minutes in buffer containing 50 mM Tris HCl, 120 mM NaCl and 5 mM KCl (pH 7.4). The binding reaction was terminated by rapid filtration, membranes were washed and membrane-bound radioactivity was measured using a scintillation counter. Non-specific binding was measured in the presence of excess (10 μM) clomipramine as the unlabelled ligand and this value was subtracted from the total binding to yield the specific binding at each test compound concentration.
IC50 values were obtained from non-linear regression analysis of concentration-versus specific binding plots. Ki values were calculated from the IC50 values using the Cheng Prusoff correction and experimentally determined […] values for the radioligand under these assay conditions.

[3] = biological target: T2, cloned human hERG channel (Homo sapiens, UniProt Q12809); assay: In vitro effect on hERG channels, whole-cell patch clamp in HEK cells; format: cell-based; details: 37 °C, read-out: IhERG, 0.1 HZ, IC50
T2 construct: expressed in transfected cells; host or cells: HEK cells
T2 sequence (Q12809 whole entry): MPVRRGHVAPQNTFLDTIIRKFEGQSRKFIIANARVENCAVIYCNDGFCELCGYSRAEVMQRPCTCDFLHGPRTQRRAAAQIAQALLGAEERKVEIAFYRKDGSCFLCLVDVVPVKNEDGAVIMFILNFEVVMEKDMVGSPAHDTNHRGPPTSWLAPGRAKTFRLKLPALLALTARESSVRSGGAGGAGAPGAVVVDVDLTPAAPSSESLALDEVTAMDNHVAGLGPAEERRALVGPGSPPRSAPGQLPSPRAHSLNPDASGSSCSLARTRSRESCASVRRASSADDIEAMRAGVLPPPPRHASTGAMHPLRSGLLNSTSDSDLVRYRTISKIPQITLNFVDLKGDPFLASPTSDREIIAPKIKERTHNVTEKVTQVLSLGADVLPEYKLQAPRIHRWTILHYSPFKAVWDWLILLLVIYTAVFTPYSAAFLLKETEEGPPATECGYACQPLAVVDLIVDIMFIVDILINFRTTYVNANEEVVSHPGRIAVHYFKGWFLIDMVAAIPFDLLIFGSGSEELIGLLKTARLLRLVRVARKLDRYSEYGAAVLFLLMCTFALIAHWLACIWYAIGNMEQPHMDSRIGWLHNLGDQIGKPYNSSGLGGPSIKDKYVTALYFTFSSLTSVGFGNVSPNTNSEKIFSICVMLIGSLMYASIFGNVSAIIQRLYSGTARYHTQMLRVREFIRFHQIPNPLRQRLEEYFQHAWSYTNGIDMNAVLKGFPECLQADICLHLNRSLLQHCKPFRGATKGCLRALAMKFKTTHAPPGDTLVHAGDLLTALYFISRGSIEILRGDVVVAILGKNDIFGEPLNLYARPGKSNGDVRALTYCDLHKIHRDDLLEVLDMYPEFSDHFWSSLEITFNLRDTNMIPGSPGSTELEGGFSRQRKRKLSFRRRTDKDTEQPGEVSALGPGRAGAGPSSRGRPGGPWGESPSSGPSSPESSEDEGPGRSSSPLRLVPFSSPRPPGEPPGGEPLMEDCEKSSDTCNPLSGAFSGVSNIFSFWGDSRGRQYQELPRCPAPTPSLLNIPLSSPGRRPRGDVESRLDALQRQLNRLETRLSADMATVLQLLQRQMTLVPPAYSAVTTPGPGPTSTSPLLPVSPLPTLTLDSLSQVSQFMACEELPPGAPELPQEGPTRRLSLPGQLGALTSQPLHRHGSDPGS
Protocol: Electrophysiological measurements of hERG current were made in vitro to assess the hERG block produced by certain compounds disclosed herein. hERG currents were measured in HEK cells expressing the cloned human hERG channel using the whole-cell variant of the patch clamp method. Experiments were performed at 37±1° C. An Axopatch 1-B amplifier (Axon Instruments, Foster City, Calif.) was used for whole-cell voltage clamping. Creation of voltage clamp pulses and data acquisition was controlled by a PC running pClamp software (version 9.2, Axon Instruments). After rupture of the cell membrane (entering whole-cell mode), current kinetics and amplitudes were allowed to stabilize for 3-5 minutes as the cell was dialyzed with internal solution and paced at 0.1 Hz. Cells were depolarized to +10 mV for 500 ms from a holding potential of −75 mV and peak hERG current was measured as the maximum outward deflection of the tail current elicited upon return to −40 mV (pacing rate=0.1 Hz). Four concentrations of each test compound were added to the cell in a cumulative manner starting with the lowest test concentration. Each cell served as its own control and data are presented as % reduction of current amplitude achieved in the presence of drug.
A nonlinear curve fitting routine was utilized to fit a three-parameter Hill equation to the results using MicroCal Origin, version 6.0 software. The equation was: […]

| Compound | IC50 ([1]; Table 1, pacing rate 3 Hz) | Ki ([2]; Table 1) | Ki ([2]; Table 2) | IC50 ([3]; Table 2, pacing rate 0.1 Hz) | Ki ([2]; Table 3) | IC50 ([3]; Table 3, pacing rate 0.1 Hz) | other results |
| --- | --- | --- | --- | --- | --- | --- | --- |
| 5-(3-Dimethylamino-propylidene)-10,11-dihydro-5H-dibenzo[a,d]cyclohept-E-en-2-OmPEG6 hydrochloride salt | 16.3 µM | 35.5 µM |  |  |  |  | IC50 ([3]; Table 1, pacing rate 0.1 Hz): 61.5 µM |
| 5-(3-Dimethylamino-propylidene)-10,11-dihydro-5H-dibenzo[a,d]cyclohept-Z-en-2-OmPEG6 hydrochloride salt | 12.4 µM | 37.7 µM |  |  |  |  | IC50 ([3]; Table 1, pacing rate 0.1 Hz): 8.1 µM |
| COCCOCCOCCOCCOc1ccc2c(c1)CCc1ccccc1/C2=C\CCN(C)C [5-(3-Dimethylamino-propylidene)-10,11-dihydro-5H-dibenzo[a,d]cyclohept-E-en-2-OmPEG4 hydrochloride salt] | 6.8 µM | 60.8 µM |  |  |  |  | IC50 ([3]; Table 1, pacing rate 0.1 Hz): 5.8 µM |
| COCCOCCOCCOCCOCCOCCOCCOCCOc1ccc2c(c1)CCc1ccccc1/C2=C\CCN(C)C [5-(3-Dimethylamino-propylidene)-10,11-dihydro-5H-dibenzo[a,d]cyclohept-E-en-2-OmPEG8 hydrochloride salt] | 23.4 µM | 62.9 µM |  |  |  |  | IC50 ([3]; Table 1, pacing rate 0.1 Hz): 2.2 µM |
| COCCOCCOCCOCCOc1ccc2c(c1)CCc1ccccc1/C2=C/CCN(C)C [5-(3-Dimethylamino-propylidene)-10,11-dihydro-5H-dibenzo[a,d]cyclohept-Z-en-2-OmPEG4 hydrochloride salt] | 12.8 µM | 21.2 µM |  |  |  |  | IC50 ([3]; Table 1, pacing rate 0.1 Hz): 24.9 µM |
| COCCOCCOCCOCCOCCOCCOCCOCCOc1ccc2c(c1)CCc1ccccc1/C2=C/CCN(C)C [5-(3-Dimethylamino-propylidene)-10,11-dihydro-5H-dibenzo[a,d]cyclohept-Z-en-2-OmPEG8 hydrochloride salt] | 16.9 µM | 646 µM |  |  |  |  | IC50 ([3]; Table 1, pacing rate 0.1 Hz): 26.4 µM |
| CN(C)CC/C=C1\c2ccccc2CCc2cc(O)ccc21 [(E)-5-(3-(dimethylamino)propylidene)-10,11-dihydro-5H-dibenzo[a,d][7]annulen-2-ol, reference compound] |  | 0.16 µM |  |  |  |  |  |
| CN(C)CC/C=C1\c2ccccc2C[C@@H](O)c2ccccc21 [(R)-5-(3-dimethylamino-propylidene)-10,11-dihydro-5H-dibenzo[a,d]cyclohept-E-en-10-ol, reference compound] |  |  | 2.53 µM | 18 µM |  |  | IC50 ([1]; Table 2, pacing rate 3 Hz): 6.2 µM |
| CN(C)CC/C=C1/c2ccccc2C[C@@H](O)c2ccccc21 [(R)-5-(3-dimethylamino-propylidene)-10,11-dihydro-5H-dibenzo[a,d]cyclohept-Z-en-10-ol, reference compound] |  |  |  |  | 6.28 µM | 4.1 µM |  |
| COCCO[C@@H]1Cc2ccccc2/C(=C\CCN(C)C)c2ccccc21 [(R)-5-(3-dimethylamino-propylidene)-10-OmPEG1-10,11-dihydro-5H-dibenzo[a,d]cyclohept-E-ene trifluoroacetate salt] |  |  | 4.45 µM | 12.1 µM |  |  |  |
| COCCOCCO[C@@H]1Cc2ccccc2/C(=C\CCN(C)C)c2ccccc21 [(R)-5-(3-dimethylamino-propylidene)-10-OmPEG2-10,11-dihydro-5H-dibenzo[a,d]cyclohept-E-ene trifluoroacetate salt] |  |  | 49.1 µM | 14 µM |  |  |  |
| COCCOCCOCCOCCO[C@@H]1Cc2ccccc2/C(=C\CCN(C)C)c2ccccc21 [(R)-5-(3-dimethylamino-propylidene)-10-OmPEG4-10,11-dihydro-5H-dibenzo[a,d]cyclohept-E-ene trifluoroacetate salt] |  |  | 28.1 µM | 39.9 µM |  |  | IC50 ([1]; Table 2, pacing rate 3 Hz): 21.3 µM |
| COCCOCCOCCOCCO[C@@H]1Cc2ccccc2/C(=C/CCN(C)C)c2ccccc21 [(R)-5-(3-dimethylamino-propylidene)-10-OmPEG4-10,11-dihydro-5H-dibenzo[a,d]cyclohept-Z-ene trifluoroacetate salt] |  |  |  |  | 30.6 µM | 21.5 µM |  |
| COCCOCCOCCOCCOCCOCCO[C@@H]1Cc2ccccc2/C(=C\CCN(C)C)c2ccccc21 [(R)-5-(3-dimethylamino-propylidene)-10-OmPEG6-10,11-dihydro-5H-dibenzo[a,d]cyclohept-E-ene trifluoroacetate salt] |  |  | 60.4 µM | 37.9 µM |  |  | IC50 ([1]; Table 2, pacing rate 3 Hz): 8.1 µM |
| COCCOCCOCCOCCOCCOCCO[C@@H]1Cc2ccccc2/C(=C/CCN(C)C)c2ccccc21 [(R)-5-(3-dimethylamino-propylidene)-10-OmPEG6-10,11-dihydro-5H-dibenzo[a,d]cyclohept-Z-ene trifluoroacetate salt] |  |  |  |  | 31.3 µM | 18.9 µM |  |
| COCCOCCOCCOCCOCCOCCOCCOCCO[C@@H]1Cc2ccccc2/C(=C\CCN(C)C)c2ccccc21 [(R)-5-(3-dimethylamino-propylidene)-10-OmPEG8-10,11-dihydro-5H-dibenzo[a,d]cyclohept-E-ene trifluoroacetate salt] |  |  | 13.5 µM | 55.9 µM |  |  | IC50 ([1]; Table 2, pacing rate 3 Hz): 21.2 µM |
| COCCOCCOCCOCCOCCOCCOCCOCCO[C@@H]1Cc2ccccc2/C(=C/CCN(C)C)c2ccccc21 [(R)-5-(3-dimethylamino-propylidene)-10-OmPEG8-10,11-dihydro-5H-dibenzo[a,d]cyclohept-Z-ene trifluoroacetate salt] |  |  |  |  | 4.37 µM | > 100 µM |  |
| CN(C)CC/C=C1\c2ccccc2C[C@H](O)c2ccccc21 [(S)-5-(3-Dimethylamino-propylidene)-10,11-dihydro-5H-dibenzo[a,d]cyclohept-E-en-10-ol, reference compound] |  |  | 0.34 µM | 23.2 µM |  |  | IC50 ([1]; Table 2, pacing rate 3 Hz): 16.6 µM |
| CN(C)CC/C=C1/c2ccccc2C[C@H](O)c2ccccc21 [(S)-5-(3-Dimethylamino-propylidene)-10,11-dihydro-5H-dibenzo[a,d]cyclohept-Z-en-10-ol, reference compound] |  |  |  |  | 0.97 µM | 7.2 µM |  |
| COCCOCCOCCOCCO[C@H]1Cc2ccccc2/C(=C/CCN(C)C)c2ccccc21 [(S)-5-(3-dimethylamino-propylidene)-10-OmPEG4-10,11-dihydro-5H-dibenzo[a,d]cyclohept-Z-ene trifluoroacetate salt] |  |  |  |  | 27.4 µM | 11.5 µM |  |
| COCCOCCOCCOCCOCCOCCO[C@H]1Cc2ccccc2/C(=C/CCN(C)C)c2ccccc21 [(S)-5-(3-dimethylamino-propylidene)-10-OmPEG6-10,11-dihydro-5H-dibenzo[a,d]cyclohept-Z-ene trifluoroacetate salt] |  |  |  |  | 22.1 µM | 38.3 µM |  |
| COCCOCCOCCOCCOCCOCCOCCOCCO[C@H]1Cc2ccccc2/C(=C/CCN(C)C)c2ccccc21 [(S)-5-(3-dimethylamino-propylidene)-10-OmPEG8-10,11-dihydro-5H-dibenzo[a,d]cyclohept-Z-ene trifluoroacetate salt] |  |  |  |  | 2.99 µM | 32.8 µM |  |
| CN(C)CCC=C1c2ccccc2CCc2ccccc21 [Amitriptyline, reference compound] | 7.1 µM |  |  |  |  |  | IC50 ([1]; Table 2, pacing rate 3 Hz): 7.1 µM |
